Experiments:
[1] = target: Sodium-dependent serotonin transporter (Rattus norvegicus, UniProt P31652); assay: Binding affinity towards rat serotonin transporter (SERT)
[2] = target: Sodium-dependent dopamine transporter (Rattus norvegicus, UniProt P23977); assay: Binding affinity towards dopamine transporter (DAT)
Sodium-dependent dopamine transporter, sequence (P23977 whole entry): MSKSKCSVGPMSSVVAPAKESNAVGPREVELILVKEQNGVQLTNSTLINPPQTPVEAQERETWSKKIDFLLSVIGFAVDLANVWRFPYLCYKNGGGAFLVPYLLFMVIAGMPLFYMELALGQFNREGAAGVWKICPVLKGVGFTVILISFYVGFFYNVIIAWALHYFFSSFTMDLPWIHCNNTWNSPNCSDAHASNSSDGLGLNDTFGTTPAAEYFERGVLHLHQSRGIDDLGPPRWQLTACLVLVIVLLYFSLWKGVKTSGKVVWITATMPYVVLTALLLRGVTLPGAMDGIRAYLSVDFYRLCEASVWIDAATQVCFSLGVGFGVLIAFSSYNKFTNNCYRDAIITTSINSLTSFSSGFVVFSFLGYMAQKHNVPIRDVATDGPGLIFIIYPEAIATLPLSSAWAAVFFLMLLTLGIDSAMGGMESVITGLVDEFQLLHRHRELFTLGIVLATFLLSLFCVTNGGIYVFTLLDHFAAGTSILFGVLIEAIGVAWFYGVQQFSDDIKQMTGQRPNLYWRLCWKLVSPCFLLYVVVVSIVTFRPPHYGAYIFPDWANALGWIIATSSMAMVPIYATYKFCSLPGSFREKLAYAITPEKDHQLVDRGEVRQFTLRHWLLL

Sodium-dependent serotonin transporter, sequence (P31652 whole entry): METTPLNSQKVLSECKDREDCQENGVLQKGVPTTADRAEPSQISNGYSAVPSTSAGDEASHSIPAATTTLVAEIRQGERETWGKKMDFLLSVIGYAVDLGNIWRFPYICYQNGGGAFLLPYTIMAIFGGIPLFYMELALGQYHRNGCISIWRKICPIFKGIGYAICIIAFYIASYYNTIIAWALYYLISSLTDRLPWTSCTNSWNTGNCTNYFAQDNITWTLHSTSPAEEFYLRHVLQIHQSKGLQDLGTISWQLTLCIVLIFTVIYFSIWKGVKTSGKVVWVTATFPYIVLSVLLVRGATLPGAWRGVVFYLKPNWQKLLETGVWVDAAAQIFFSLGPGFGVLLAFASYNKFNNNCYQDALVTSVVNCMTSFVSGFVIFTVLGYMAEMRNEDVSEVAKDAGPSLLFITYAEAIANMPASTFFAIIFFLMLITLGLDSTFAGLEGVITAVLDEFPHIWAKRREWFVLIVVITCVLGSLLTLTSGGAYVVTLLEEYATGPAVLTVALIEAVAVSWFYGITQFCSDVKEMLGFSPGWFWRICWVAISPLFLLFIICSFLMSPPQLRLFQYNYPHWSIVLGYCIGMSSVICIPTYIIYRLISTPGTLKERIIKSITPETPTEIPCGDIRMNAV

| SMILES | Ki [1] | Ki [2] |
| --- | --- | --- |
| OC(CCN1CCN(CCOC(c2ccc(F)cc2)c2ccc(F)cc2)CC1)c1ccc(Br)cc1 (configuration not stated) | 50 nM | 2.5 nM |
| O=C(CCN1CCN(CCOC(c2ccccc2)c2ccccc2)CC1)c1cccc(F)c1 | 1360 nM | 260 nM |
| COc1ccc2c(c1)CCC(CN1CCN(CCOC(c3ccc(F)cc3)c3ccc(F)cc3)CC1)C2=O (configuration not stated) | 3 nM | 22 nM |
| O=C1CCCCC1CN1CCN(CCOC(c2ccccc2)c2ccccc2)CC1 (configuration not stated) | 3300 nM | 250 nM |
| OC1CCCC1CN1CCN(CCOC(c2ccc(F)cc2)c2ccc(F)cc2)CC1 (configuration not stated) | 920 nM | 32 nM |
| O=C1c2ccccc2CCC1CN1CCN(CCOC(c2ccccc2)c2ccccc2)CC1 (configuration not stated) | 1050 nM | 390 nM |
| OC1CCCC1CN1CCN(CCOC(c2ccccc2)c2ccccc2)CC1 (configuration not stated) | 2200 nM | 170 nM |
| O=C(CCN1CCN(CCOC(c2ccc(F)cc2)c2ccc(F)cc2)CC1)c1cccc(F)c1 | 220 nM | 89 nM |
| OC(CCN1CCN(CCOC(c2ccccc2)c2ccccc2)CC1)c1ccc(Br)cc1 (configuration not stated) | 340 nM | 7.5 nM |
| O=C1CCCCCC1CN1CCN(CCOC(c2ccccc2)c2ccccc2)CC1 (configuration not stated) | 4100 nM | 270 nM |
| O=C(CCN1CCN(CCOC(c2ccccc2)c2ccccc2)CC1)c1ccc(Br)cc1 | 2600 nM | 290 nM |
| COc1ccc2c(c1)CC[C@@H](CN1CCN(CCOC(c3ccccc3)c3ccccc3)CC1)[C@@H]2O | 93 nM | 40 nM |
| O=C(CCN1CCN(CCOC(c2ccc(F)cc2)c2ccc(F)cc2)CC1)c1ccc(Br)cc1 | 480 nM | 37 nM |
| O=C(CCN1CCN(CCOC(c2ccccc2)c2ccccc2)CC1)c1cccs1 | 1240 nM | 190 nM |
| COc1ccc2c(c1)CCC(CN1CCN(CCOC(c3ccc(F)cc3)c3ccc(F)cc3)CC1)=C2 | 57 nM | 14 nM |
| COc1ccc2c(c1)CC[C@@H](CN1CCN(CCOC(c3ccccc3)c3ccccc3)CC1)[C@H]2O | 100 nM | 32 nM |
| OC(CCN1CCN(CCOC(c2ccc(F)cc2)c2ccc(F)cc2)CC1)c1ccco1 (configuration not stated) | 150 nM | 10 nM |
| OC(CCN1CCN(CCOC(c2ccccc2)c2ccccc2)CC1)c1cccs1 (configuration not stated) | 690 nM | 15 nM |
| O=C1CCCC1CN1CCN(CCOC(c2ccccc2)c2ccccc2)CC1 (configuration not stated) | 5700 nM | – |
| O[C@H]1c2ccccc2CC[C@H]1CN1CCN(CCOC(c2ccc(F)cc2)c2ccc(F)cc2)CC1 | 30 nM | 1.3 nM |
| COc1ccc2c(c1)CC[C@@H](CN1CCN(CCOC(c3ccc(F)cc3)c3ccc(F)cc3)CC1)[C@H]2O | 3 nM | 7.3 nM |
| OC(CCN1CCN(CCOC(c2ccc(F)cc2)c2ccc(F)cc2)CC1)c1cccs1 (configuration not stated) | 59 nM | 7.2 nM |

| SMILES | Ki [1] | Ki [2] |
| --- | --- | --- |
| O=C1CCCCC1CN1CCN(CCOC(c2ccc(F)cc2)c2ccc(F)cc2)CC1 (configuration not stated) | 1130 nM | 62 nM |
| O=C1c2ccccc2CCC1CN1CCN(CCOC(c2ccc(F)cc2)c2ccc(F)cc2)CC1 (configuration not stated) | 110 nM | 57 nM |
| COc1ccc2c(c1)CCC(CN1CCN(CCOC(c3ccccc3)c3ccccc3)CC1)=C2 | 530 nM | 39 nM |
| Fc1ccc(C(OCCN2CCN(CC3=Cc4ccccc4CC3)CC2)c2ccc(F)cc2)cc1 | 260 nM | 6.4 nM |
| COc1ccc2c(c1)CCC(CN1CCN(CCOC(c3ccccc3)c3ccccc3)CC1)C2=O (configuration not stated) | 70 nM | 78 nM |
| O=C1CCCCCC1CN1CCN(CCOC(c2ccc(F)cc2)c2ccc(F)cc2)CC1 (configuration not stated) | 530 nM | 49 nM |
| C1=C(CN2CCN(CCOC(c3ccccc3)c3ccccc3)CC2)CCc2ccccc21 | 1360 nM | 38 nM |
| O=C1CCCC1CN1CCN(CCOC(c2ccc(F)cc2)c2ccc(F)cc2)CC1 (configuration not stated) | 970 nM | 84 nM |
| COc1ccc2c(c1)CC[C@@H](CN1CCN(CCOC(c3ccc(F)cc3)c3ccc(F)cc3)CC1)[C@@H]2O | 3 nM | 18 nM |
| O[C@@H]1c2ccccc2CC[C@H]1CN1CCN(CCOC(c2ccc(F)cc2)c2ccc(F)cc2)CC1 | 32 nM | 18 nM |
| O[C@@H]1c2ccccc2CC[C@H]1CN1CCN(CCOC(c2ccccc2)c2ccccc2)CC1 | 440 nM | 59 nM |
| OC1CCCCC1CN1CCN(CCOC(c2ccc(F)cc2)c2ccc(F)cc2)CC1 (configuration not stated) | 580 nM | 37 nM |
| OC(CCN1CCN(CCOC(c2ccc(F)cc2)c2ccc(F)cc2)CC1)c1cccc(F)c1 (configuration not stated) | 53 nM | 3.9 nM |
| O=C(CCN1CCN(CCOC(c2ccccc2)c2ccccc2)CC1)c1ccco1 | 3300 nM | 300 nM |
| O=C(CCN1CCN(CCOC(c2ccc(F)cc2)c2ccc(F)cc2)CC1)c1cccs1 | 110 nM | 84 nM |
| OC(CCN1CCN(CCOC(c2ccccc2)c2ccccc2)CC1)c1ccco1 (configuration not stated) | 1940 nM | 19 nM |
| O[C@H]1c2ccccc2CC[C@H]1CN1CCN(CCOC(c2ccccc2)c2ccccc2)CC1 | 500 nM | 35 nM |
| OC1CCCCCC1CN1CCN(CCOC(c2ccc(F)cc2)c2ccc(F)cc2)CC1 (configuration not stated) | 480 nM | 22 nM |
| O=C(CCN1CCN(CCOC(c2ccc(F)cc2)c2ccc(F)cc2)CC1)c1ccco1 | 350 nM | 72 nM |
| OC1CCCCCC1CN1CCN(CCOC(c2ccccc2)c2ccccc2)CC1 (configuration not stated) | 3900 nM | 210 nM |
| OC(CCN1CCN(CCOC(c2ccccc2)c2ccccc2)CC1)c1cccc(F)c1 (configuration not stated) | 910 nM | 4.1 nM |
| OC1CCCCC1CN1CCN(CCOC(c2ccccc2)c2ccccc2)CC1 (configuration not stated) | 3300 nM | 210 nM |

Source: ChEMBL document CHEMBL1136827, “Further exploration of 1-[2-[Bis-(4-fluorophenyl)methoxy]ethyl]piperazine (GBR 12909): role of N-aromatic, N-heteroaromatic, and 3-oxygenated N-phenylpropyl substituents on affinity for the dopamine and serotonin transporter” (Bioorg Med Chem Lett, 2003)
